The subject of series [1] is advanced metastatic renal cell clear cell carcinoma. Description: Sutent treatment of patients with advanced metastatic renal cell clear cell carcinoma, response after the 3 months therapy course (RECIST criteria). It is filed as in vivo, human. To be noted: of 50 patients analyzed, 50 mg/day for 4 weeks followed by 2 weeks off. The protocol:
All patients were diagnosed with advanced metastatic renal cell clear cell carcinoma and subjected to surgery for removal of the primary tumor. The tumor tissue was fixed in formaldehyde, and embedded in paraffin. Sections were cut and stained for the FSH receptor using the monoclonal antibody FSHR323, followed by a secondary HRP- or Alexa555-coupled antibody. The density of vessels in the tumor tissue was determined by microscopy using a 20× objective. Starting at the border between the normal and the tumor tissue and moving towards the interior of the tumor, digital photographs were taken of every other field. The number of FSHR-positive vessels in each image was counted in 20 images from each tumor.
The patients were subjected to Sutent treatment for >=3 months with a dose of 50 mg/day for 4 weeks followed by 2 weeks off. Depending on the effects of the treatment, at the end of the 3 months therapy course the patients were designated as “responsive”, “stable” or “non-responsive” according to the criteria described in [Eisenhauer et al., 2009]. The patients were categorized as “responsive” if there was at least a 30% decrease in the sum of the diameters of the lesions, and “non-responsive” if the sum of the lesion sizes increased by at least 20%.

For series [2], the system named is metastatic renal cell carcinoma (mRCC). Conditions: cited from earlier work.
The next series concerns RCC. Conditions: BEV alone; cited from earlier work.

`CCN(CC)CCNC(=O)c1c(C)[nH]c(/C=C2\C(=O)Nc3ccc(F)cc32)c1C` [Sutent, N-[2-(diethylamino)ethyl]-5-[(Z)-(5-fluoro-1,2-dihydro-2-oxo-3H-indol-3-ylidine)methyl]-2,4-dimethyl-1H-pyrrole-3 carboxamide]: in series [1], the “number of patients "non-responsive" (sum of the lesion sizes increased by at least 20%)” value turned out to be 17 patients, the “number of patients "responsive" (at least 30% decrease in the sum of the diameters of the lesions)” value is 15 patients and the “number of patients "stable"” value is listed as 18 patients. The “fraction of RCC patients who respond to the treatment” value in series [2] (RCC patients) was “about one third”. Moreover, in series [2] (first-line therapy, mRCC, compared to interferon-α), the “reduction of the risk of relapse (progression-free survival)” value is on record as 58%. For the same molecule, in series [2] (patients, typical treatment session 3 months), the adverse side effects entry was “significant adverse side effects”.
Regarding “BEV: a monoclonal humanized antibody against circulating VEGF”, the “activity in patients with RCC” value with RCC was “showed activity only as second-line treatment and only in cytokine-refractory patients”.

The record behind these values is US20130131136A1, “NOVEL METHODS FOR PREDICTING THE RESPONSIVENESS OF A PATIENT AFFECTED WITH A TUMOR TO A TREATMENT WITH A TYROSINE KINASE INHIBITOR” (priority 2010, published 2013).
